This note sets out measurements from ChEMBL document CHEMBL1201862, “PubChem BioAssay data set” (2004).

The target of test [1] is Intestinal-type alkaline phosphatase (Mus musculus, UniProt P24822). The test can be described thus: PubChem AID 488875. In kind it is functional.
In test [2] the target is T1, Intestinal-type alkaline phosphatase (Homo sapiens, UniProt P09923). The test can be described thus: human intestinal alkaline phosphatase activators, dose response, biochemical, luminescence, uHTS hits (AID 463120). In kind it is functional.
T1 sequence (P09923 whole entry): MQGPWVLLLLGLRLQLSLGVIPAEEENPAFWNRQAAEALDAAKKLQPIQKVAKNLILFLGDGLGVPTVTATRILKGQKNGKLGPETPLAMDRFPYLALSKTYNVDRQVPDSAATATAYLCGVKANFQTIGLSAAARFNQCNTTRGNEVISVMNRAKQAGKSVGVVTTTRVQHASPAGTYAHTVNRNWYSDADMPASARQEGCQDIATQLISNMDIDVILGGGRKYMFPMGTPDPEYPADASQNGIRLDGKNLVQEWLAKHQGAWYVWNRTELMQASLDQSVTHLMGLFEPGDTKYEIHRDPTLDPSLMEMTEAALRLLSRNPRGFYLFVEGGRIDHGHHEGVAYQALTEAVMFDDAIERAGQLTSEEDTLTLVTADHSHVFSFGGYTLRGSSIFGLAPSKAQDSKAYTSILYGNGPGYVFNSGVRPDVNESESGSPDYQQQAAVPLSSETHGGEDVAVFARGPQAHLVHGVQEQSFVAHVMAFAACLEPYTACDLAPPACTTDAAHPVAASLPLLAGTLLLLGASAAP
In test [3] the target is T1, Intestinal-type alkaline phosphatase. The experiment in a line: human IAP activators, dose response, biochemical, luminescent, uHTS hits, set 2 (AID 488817).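 Further: potency of activators that raise enzyme activity.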 In kind it is functional.
The target of test [4] is T2, Alkaline phosphatase, tissue-nonspecific isozyme (Homo sapiens, UniProt P05186).
T2 sequence (P05186 whole entry): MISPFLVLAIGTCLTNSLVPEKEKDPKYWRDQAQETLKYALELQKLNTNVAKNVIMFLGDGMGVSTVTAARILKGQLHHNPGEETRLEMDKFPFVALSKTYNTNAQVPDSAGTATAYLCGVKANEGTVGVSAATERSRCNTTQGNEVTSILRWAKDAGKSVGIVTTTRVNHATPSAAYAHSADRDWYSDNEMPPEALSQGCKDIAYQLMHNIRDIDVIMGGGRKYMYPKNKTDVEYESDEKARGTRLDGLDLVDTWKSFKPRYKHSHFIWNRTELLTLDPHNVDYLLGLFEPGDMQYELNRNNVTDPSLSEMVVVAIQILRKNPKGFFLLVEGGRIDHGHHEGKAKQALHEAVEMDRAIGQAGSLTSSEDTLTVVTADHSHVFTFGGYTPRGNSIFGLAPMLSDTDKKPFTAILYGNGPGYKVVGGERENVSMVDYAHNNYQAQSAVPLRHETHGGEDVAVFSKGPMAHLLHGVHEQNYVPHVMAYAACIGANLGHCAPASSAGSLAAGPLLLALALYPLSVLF
The test can be described thus: TNAP enzyme activators, dose response, selectivity assay for human IAP activator project, biochemical, TNAP isozyme, human IAP uHTS hits (AID 488886).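 Further: potency of compounds raising TNAP activity as a selectivity check on IAP activators.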 It is filed as functional.

In test [5] the target is NACHT, LRR and PYD domains-containing protein 1 (Homo sapiens, UniProt Q9C000). The experiment in a line: NALP1 inhibitors in yeast, dose response, luminescent (AID 488860). In kind it is functional.
In the next test the test system is Saccharomyces cerevisiae. The test can be described thus: NALP1 inhibitor project selectivity study, Caspase-1/ASC signal blockade IC50 in S. cerevisiae (AID 488863). In kind it is functional, organism-based.
Test [6] addresses T3, SUMO-activating enzyme (Homo sapiens, UniProt Q9UBT2). The test can be described thus: SUMOylation inhibitor hit validation, confirmation, SUMOylation inhibitor project, biochemical, AlphaScreen (AID 2018). In kind it is functional. On the technique in general: Bead proximity is the source of the signal in Alpha formats.
For test [7], the target named is T4, Probable nicotinate-nucleotide adenylyltransferase (Staphylococcus aureus (strain N315), UniProt P65502). In kind it is functional, Staphylococcus aureus subsp. aureus N315. The conditions noted are these: read-out: IC50_Mean.
T4 sequence (P65502 whole entry): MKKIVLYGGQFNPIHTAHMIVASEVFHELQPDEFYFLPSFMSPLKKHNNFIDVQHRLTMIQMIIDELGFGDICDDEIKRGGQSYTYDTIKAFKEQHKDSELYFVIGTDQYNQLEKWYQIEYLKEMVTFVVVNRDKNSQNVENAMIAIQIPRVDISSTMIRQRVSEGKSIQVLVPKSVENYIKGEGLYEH
In test [8] the target is Induced myeloid leukemia cell differentiation protein Mcl-1 (Homo sapiens, UniProt Q07820). It is filed as functional.
Induced myeloid leukemia cell differentiation protein Mcl-1, sequence (Q07820 whole entry): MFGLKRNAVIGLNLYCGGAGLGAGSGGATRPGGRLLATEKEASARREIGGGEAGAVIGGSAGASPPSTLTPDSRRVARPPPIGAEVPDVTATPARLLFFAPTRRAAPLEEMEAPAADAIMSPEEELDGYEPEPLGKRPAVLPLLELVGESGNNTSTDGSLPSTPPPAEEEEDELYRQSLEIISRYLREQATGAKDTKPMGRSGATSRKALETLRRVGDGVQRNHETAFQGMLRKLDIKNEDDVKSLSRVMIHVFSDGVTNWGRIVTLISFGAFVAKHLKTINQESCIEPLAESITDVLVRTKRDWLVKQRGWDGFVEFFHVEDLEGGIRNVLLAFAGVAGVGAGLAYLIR
Test [9] concerns the target T3, SUMO-activating enzyme. The experiment in a line: inhibitors of in vitro SUMOylation cascade, primary screen, biochemical, HTRF, uHTS (AID 2006). In kind it is protein-complex assay.
The target of test [10] is T4, Probable nicotinate-nucleotide adenylyltransferase. In kind it is functional, Staphylococcus aureus subsp. aureus N315.
The target of a further test is Hexokinase (Trypanosoma brucei, UniProt Q38C41). The test can be described thus: Confirmation assay for inhibitors of Trypanosoma brucei hexokinase 1-Analogue-first series. [Related pubchem assays (depositor defined):AID1430, AID1632, AID2516, AID2560, AID2579, AID2600, AID449725, AID492951]. In kind it is functional.
Hexokinase, sequence (Q38C41 whole entry): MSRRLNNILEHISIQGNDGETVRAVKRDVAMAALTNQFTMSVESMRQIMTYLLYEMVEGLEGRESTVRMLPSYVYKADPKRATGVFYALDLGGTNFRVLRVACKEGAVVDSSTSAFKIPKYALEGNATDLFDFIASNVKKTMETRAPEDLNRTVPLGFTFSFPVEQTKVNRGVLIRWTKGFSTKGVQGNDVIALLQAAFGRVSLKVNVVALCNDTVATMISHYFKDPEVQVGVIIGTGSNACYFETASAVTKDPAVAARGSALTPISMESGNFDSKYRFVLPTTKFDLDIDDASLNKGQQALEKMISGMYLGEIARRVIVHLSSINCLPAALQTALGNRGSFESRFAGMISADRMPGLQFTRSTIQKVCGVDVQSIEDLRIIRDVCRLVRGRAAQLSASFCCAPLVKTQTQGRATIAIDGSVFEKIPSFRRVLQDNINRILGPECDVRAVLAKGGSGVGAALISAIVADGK
Test [11] deals with T5, Cannabinoid receptor 2 (Homo sapiens, UniProt P34972). The experiment in a line: SAR analysis of agonists of the Cannabinoid Receptor 2 using an Image-Based Assay - Set 2. [Related pubchem assays (depositor defined):AID1961, AID1965]. In kind it is functional.
T5 sequence (P34972 whole entry): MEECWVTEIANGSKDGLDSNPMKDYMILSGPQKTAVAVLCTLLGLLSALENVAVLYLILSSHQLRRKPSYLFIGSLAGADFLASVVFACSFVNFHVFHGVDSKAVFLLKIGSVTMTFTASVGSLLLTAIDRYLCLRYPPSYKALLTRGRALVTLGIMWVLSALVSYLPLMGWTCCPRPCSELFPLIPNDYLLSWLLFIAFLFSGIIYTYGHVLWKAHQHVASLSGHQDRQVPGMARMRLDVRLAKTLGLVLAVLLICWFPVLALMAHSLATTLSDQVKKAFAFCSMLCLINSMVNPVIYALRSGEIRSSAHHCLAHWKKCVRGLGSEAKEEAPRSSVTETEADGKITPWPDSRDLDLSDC
Test [12] addresses T6, Cannabinoid receptor 1 (Homo sapiens, UniProt P21554). The experiment in a line: SAR analysis of antagonists of the Cannabinoid Receptor 1 using an Image-Based Assay - Set 3. [Related pubchem assays (depositor defined):AID1961, AID1965]. It is filed as functional.
Test [13] has as its target T7, G-protein coupled receptor 35 (Homo sapiens, UniProt Q9HC97). The test can be described thus: SAR analysis of Antagonists of the GPR35 Receptor using an Image-Based Assay - Set 4. [Related pubchem assays (depositor defined):[…]]. In kind it is functional.
The target in test [14] is G-protein coupled receptor 55 (Homo sapiens, UniProt Q9Y2T6). The test can be described thus: SAR analysis of selective Agonists of GPR55 using an Image-Based Assay - Set 2. [Related pubchem assays (depositor defined):AID1961, AID1965]. It is filed as functional.
G-protein coupled receptor 55, sequence (Q9Y2T6 whole entry): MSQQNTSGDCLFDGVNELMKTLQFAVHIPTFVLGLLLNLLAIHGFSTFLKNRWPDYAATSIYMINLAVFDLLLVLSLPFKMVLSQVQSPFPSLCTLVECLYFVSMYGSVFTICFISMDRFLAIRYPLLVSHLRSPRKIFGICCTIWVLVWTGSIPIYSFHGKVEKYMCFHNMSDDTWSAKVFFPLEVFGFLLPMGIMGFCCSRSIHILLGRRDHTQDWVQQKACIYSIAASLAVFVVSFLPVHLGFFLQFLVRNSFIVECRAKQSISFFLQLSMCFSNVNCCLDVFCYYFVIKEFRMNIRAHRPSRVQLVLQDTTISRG
Test [15] concerns the target T5, Cannabinoid receptor 2. The experiment in a line: SAR analysis of antagonists of the Cannabinoid Receptor 2 using an Image-Based Assay - Set 2. [Related pubchem assays (depositor defined):AID1961, AID1965]. It is filed as functional.
For test [16], the target named is T7, G-protein coupled receptor 35. The experiment in a line: SAR analysis of Agonists of the GPR35 Receptor using an Image-Based Assay - Set 3. [Related pubchem assays (depositor defined):AID1961, AID1965]. In kind it is functional.
Test [17] deals with T6, Cannabinoid receptor 1. The experiment in a line: SAR analysis of agonists of the Cannabinoid Receptor 1 using an Image-Based Assay - Set 3. [Related pubchem assays (depositor defined):AID1961, AID1965]. In kind it is functional.
The target of test [18] is Potassium voltage-gated channel subfamily KQT member 2 (Rattus norvegicus, UniProt O88943). The test can be described thus: retigabine-insensitive KCNQ2 potentiators, concentration-response, dose response, cell-based, retigabine-insensitive compounds (AID 2654). In kind it is functional.
Test [19] in a line: inhibition of K1F phage lysis, E. coli UTI89, bacterial capsule biogenesis inhibitors, alamar blue (AID 488966). In kind it is functional. On the technique in general: The colour change of resazurin is a common sign of viable cells or microbes.

Calls of active or inactive are those of the source. A value given as a limit tells only on which side of the number the result lay.
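Wherever IC50 Mean is given: confirmatory dose-response retesting of NadD inhibitor hits first found in an ultra-high-throughput screen.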

T7 sequence (Q9HC97 whole entry): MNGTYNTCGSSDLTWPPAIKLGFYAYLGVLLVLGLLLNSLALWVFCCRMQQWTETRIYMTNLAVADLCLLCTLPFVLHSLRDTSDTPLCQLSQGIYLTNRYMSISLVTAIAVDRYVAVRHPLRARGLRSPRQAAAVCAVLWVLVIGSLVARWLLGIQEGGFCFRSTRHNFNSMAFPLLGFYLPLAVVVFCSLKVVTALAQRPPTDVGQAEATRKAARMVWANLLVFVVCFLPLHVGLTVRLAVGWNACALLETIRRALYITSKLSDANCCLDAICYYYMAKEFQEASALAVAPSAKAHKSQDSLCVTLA
T3 sequence (Q9UBE0 whole entry): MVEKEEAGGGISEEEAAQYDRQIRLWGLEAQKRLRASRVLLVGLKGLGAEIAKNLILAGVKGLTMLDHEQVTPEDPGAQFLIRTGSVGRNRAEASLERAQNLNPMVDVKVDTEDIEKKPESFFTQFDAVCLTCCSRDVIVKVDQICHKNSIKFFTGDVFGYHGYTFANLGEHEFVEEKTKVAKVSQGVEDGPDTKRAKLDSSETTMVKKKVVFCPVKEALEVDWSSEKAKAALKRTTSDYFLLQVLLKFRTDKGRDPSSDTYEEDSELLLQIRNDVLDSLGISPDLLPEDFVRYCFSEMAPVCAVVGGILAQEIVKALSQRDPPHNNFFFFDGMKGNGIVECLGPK
T3 sequence (Q9UBT2 whole entry): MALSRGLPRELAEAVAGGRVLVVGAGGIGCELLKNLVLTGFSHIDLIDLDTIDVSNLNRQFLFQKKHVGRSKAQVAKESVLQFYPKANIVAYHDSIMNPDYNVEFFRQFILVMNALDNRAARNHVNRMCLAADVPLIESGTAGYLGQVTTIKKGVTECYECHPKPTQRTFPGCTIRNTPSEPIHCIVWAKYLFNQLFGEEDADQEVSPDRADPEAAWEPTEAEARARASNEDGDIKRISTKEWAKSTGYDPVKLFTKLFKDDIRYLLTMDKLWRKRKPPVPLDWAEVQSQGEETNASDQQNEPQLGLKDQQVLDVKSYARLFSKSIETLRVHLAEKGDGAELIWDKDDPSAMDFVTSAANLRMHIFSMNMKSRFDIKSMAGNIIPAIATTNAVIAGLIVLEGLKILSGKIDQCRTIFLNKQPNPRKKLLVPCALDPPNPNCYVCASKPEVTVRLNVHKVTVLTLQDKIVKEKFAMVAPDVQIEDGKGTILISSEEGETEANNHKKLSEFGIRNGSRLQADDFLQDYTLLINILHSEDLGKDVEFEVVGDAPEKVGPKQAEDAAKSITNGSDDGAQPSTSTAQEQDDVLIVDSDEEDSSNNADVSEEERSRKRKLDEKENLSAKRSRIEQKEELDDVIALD
T6 sequence (P21554 whole entry): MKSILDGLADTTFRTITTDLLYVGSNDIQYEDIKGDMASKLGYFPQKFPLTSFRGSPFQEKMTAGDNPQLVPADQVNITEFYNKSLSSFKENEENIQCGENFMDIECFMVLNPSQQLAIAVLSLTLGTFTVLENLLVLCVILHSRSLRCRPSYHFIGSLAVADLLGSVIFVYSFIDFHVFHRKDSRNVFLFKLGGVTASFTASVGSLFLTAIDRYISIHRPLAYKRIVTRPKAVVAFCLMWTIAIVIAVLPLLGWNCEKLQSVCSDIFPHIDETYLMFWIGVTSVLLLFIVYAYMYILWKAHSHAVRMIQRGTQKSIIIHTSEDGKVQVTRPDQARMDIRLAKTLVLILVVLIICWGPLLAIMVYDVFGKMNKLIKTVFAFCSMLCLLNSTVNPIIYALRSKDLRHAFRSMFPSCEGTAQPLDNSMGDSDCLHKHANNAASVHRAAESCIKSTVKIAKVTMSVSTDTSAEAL
Intestinal-type alkaline phosphatase (Mus musculus, UniProt P24822), sequence (P24822 whole entry): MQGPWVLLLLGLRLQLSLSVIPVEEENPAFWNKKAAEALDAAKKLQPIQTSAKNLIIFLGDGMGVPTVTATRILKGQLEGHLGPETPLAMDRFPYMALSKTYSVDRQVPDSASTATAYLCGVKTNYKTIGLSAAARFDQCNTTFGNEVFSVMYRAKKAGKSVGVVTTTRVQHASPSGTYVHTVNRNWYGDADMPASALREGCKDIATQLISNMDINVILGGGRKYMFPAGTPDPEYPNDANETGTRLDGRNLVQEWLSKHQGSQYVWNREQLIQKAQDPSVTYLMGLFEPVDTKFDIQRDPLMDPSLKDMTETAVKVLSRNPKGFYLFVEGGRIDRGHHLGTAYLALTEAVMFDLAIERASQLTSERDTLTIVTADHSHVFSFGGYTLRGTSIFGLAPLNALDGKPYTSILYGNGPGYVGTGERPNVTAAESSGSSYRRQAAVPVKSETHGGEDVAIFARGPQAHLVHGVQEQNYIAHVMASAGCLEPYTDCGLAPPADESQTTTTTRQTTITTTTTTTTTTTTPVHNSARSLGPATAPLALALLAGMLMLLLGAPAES

On to `Cc1cccc(NS(=O)(=O)c2cccc(C(=O)NNC(=O)c3ccccc3O)c2)c1`, for which the EC50 in test [1] was > 100 µM (inactive); in test [2] it was 16.1 µM (active); in test [3] it was 23.5 µM (active); in [4], 0.705 µM (active).

For the compound `Cc1cc(Cl)c(OCCCCN2CCOCC2)c(Br)c1`, the IC50 (in test [5]; in the test on Saccharomyces cerevisiae) was > 100 µM (inactive) throughout.

For the compound `N#Cc1c(NC(=O)CSc2ncnc3sccc23)oc(-c2ccco2)c1-c1ccco1`, the IC50 on SUMO-activating enzyme [6] was 2.82 µM (active); in test [7], 27.8 µM (active); in [8], 4.69 µM (active); on SUMO-activating enzyme [9] it was 22.9 µM (active); in test [10], 8.79 µM (active).

For `COc1ccc(C(=O)N2CCC(=O)c3ccc(Cl)cc32)cc1`, the IC50 on Hexokinase was > 25 µM (inactive).

For the compound `COc1ccc(S(=O)(=O)N2CCOCC2)cc1NC(=O)c1ccc(-n2nc(C)cc2C)cc1`, the EC50 on Cannabinoid receptor 2 [11] was > 32 µM (inactive); in test [14] it was 0.831 µM (active); in [16] it was > 32 µM (inactive); at Cannabinoid receptor 1 [17], > 32 µM (inactive). In addition, the figures for the IC50 (at Cannabinoid receptor 1 [12]; in [13]; at Cannabinoid receptor 2 [15]) were 20.3 µM (inactive), > 32 µM (inactive) and > 32 µM (inactive), respectively.

Turning to `O=C(Nc1ccc(Cl)nc1)Nc1cccc(F)c1`, in [18], the EC50 was 2.81 µM (active).

In the case of `COc1ccc(NC(=O)/C=C2\SC(=O)NC2=O)cc1`, the IC50 in [19] is > 150 µM (active).

What is called EC50 is the concentration that produces a half-maximal response.
